In ChEMBL document CHEMBL1130748, “Design and synthesis of monocyclic beta-lactams as mechanism-based inhibitors of human cytomegalovirus protease” (Bioorg Med Chem Lett, 1998):

Experiments:
[1] = molecular target: Capsid scaffolding protein (Human cytomegalovirus (strain AD169) (HHV-5) (Human herpesvirus 5), UniProt P16753); assay: Concentration required to inhibit the mutant alpha-Ala HCMV protease by 50% was determined
Human betaherpesvirus 5 [2] = assay: Compound was evaluated for antiviral activity measured as percentage inhibition determined at a concentration of 100 (uM) against mutant alpha-Ala HCMV protease; assay type: functional
Human betaherpesvirus 5 [3] = assay: Compound was evaluated for antiviral activity measured as percentage inhibition determined at a concentration of 500 (uM) against mutant alpha-Ala HCMV protease; assay type: functional
Acetylcholinesterase = Acetylcholinesterase (Homo sapiens, UniProt P22303); assay: Concentration required to inhibit the mammalian Acetylcholinesterase by 50% was determined
Acetylcholinesterase, sequence (P22303 whole entry): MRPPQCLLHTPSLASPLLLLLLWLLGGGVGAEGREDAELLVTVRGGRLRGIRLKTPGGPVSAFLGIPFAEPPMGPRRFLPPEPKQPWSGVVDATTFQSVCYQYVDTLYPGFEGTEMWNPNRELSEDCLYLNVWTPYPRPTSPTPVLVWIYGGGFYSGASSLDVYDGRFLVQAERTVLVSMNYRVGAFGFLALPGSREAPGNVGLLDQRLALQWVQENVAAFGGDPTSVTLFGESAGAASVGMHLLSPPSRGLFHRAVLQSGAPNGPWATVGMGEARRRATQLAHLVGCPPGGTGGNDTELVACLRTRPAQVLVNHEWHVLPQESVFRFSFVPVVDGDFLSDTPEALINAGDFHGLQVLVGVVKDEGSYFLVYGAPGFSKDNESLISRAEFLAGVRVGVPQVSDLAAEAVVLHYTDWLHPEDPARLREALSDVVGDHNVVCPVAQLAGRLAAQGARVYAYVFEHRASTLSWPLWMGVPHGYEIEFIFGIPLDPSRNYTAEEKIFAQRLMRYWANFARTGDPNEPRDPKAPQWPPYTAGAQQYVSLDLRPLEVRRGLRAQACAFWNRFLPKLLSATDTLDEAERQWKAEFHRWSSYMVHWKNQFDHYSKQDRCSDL

Homo sapiens = species: Homo sapiens; assay: Concentration required to inhibit the mammalian elastase by 50% was determined; assay type: functional, organism-based
Human betaherpesvirus 5 [4] = assay: Binding affinity towards mutant alpha-Ala HCMV protease was determined; assay type: functional
Chymotrypsinogen A = Chymotrypsinogen A (Bos taurus, UniProt P00766); assay: Concentration required to inhibit the mammalian Chymotrypsinogen by 50% was determined
[5] = Compound was tested for its stability by HPLC method, value expressed as half life; assay type: physicochemical
Human betaherpesvirus 5 [6] = assay: 50 % concentration required to inhibit the mutant alpha-Ala HCMV protease was determined; assay type: functional
Human betaherpesvirus 5 [7] = assay: The compound was evaluated for antiviral activity measured as percentage inhibition determined at a concentration of 100 (uM) against mutant alpha-Ala HCMV protease; assay type: functional

Capsid scaffolding protein, sequence (P16753 1-256 limits assumed): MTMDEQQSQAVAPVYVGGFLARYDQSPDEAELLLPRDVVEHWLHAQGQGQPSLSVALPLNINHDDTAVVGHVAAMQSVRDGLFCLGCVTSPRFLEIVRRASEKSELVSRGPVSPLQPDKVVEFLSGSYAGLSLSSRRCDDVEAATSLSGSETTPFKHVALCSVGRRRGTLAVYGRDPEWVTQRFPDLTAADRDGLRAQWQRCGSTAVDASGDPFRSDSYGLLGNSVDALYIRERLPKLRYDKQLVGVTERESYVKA

Structure (SMILES)	IC50 [1] [µM]	Inhibition (Human betaherpesvirus 5 [2]) [%]	other results
C[C@@H]1C(=O)N(C(=O)NCc2ccccc2)[C@@H]1Oc1ccc(C(=O)O)cc1	> 100	12	
CC(=O)O[C@@H]1CC(=O)N1C(=O)NC(C)C	> 100	30	
CNC(=O)N1CCC1=O			Inhibition (Human betaherpesvirus 5 [3]): 7.7%
CC(=O)O[C@@H]1[C@@H](C)C(=O)N1C(=O)NCc1ccccc1	6.5		
CC(=O)OC1CC(=O)N1 (stereo not given)			Inhibition (Human betaherpesvirus 5 [3]): 0%
C[C@H]1C(=O)N(C(=O)NCc2ccccc2)[C@@H]1Oc1ccc(C(=O)O)cc1	20		IC50 (Acetylcholinesterase): > 100 µM; IC50 (Homo sapiens): 3.9 µM; Ki (Human betaherpesvirus 5 [4]): 5.6 µM; IC50 (Chymotrypsinogen A): 1.6 µM; half-life [5]: 3.1 h
CCC1(CC)C(=O)N(C(=O)NC)[C@@H]1OC(C)=O	> 100	5	
CCNC(=O)N1C(=O)C[C@H]1OC(C)=O	> 100	36	
C[C@H]1C(=O)N(C(=O)NCc2ccccc2)[C@@H]1Oc1ccc(C(=O)C(C)(C)C)cc1	17		IC50 (Acetylcholinesterase): > 100 µM; IC50 (Homo sapiens): > 100 µM; Ki (Human betaherpesvirus 5 [4]): 5.7 µM; IC50 (Chymotrypsinogen A): > 100 µM; half-life [5]: 22.8 h
CNC(=O)N1C(=O)C[C@H]1OC(C)=O		29	Inhibition (Human betaherpesvirus 5 [3]): 68.5%; IC50 (Human betaherpesvirus 5 [6]): > 100 µM
CC(=O)O[C@@H]1[C@H](C)C(=O)N1C(=O)Nc1ccccc1	> 100		
CC(=O)O[C@H]1N(C(=O)NCc2ccccc2)C(=O)C1(C)C	> 100	6	
CC(=O)O[C@@H]1[C@@H](C)C(=O)N1C(=O)Nc1ccccc1	86		
CCCCNC(=O)N1C(=O)C[C@H]1OC(C)=O	68		Ki (Human betaherpesvirus 5 [4]): 26 µM
CC[C@H]1C(=O)N(C(=O)NCc2ccccc2)[C@@H]1Oc1ccc(C(=O)O)cc1	50		Ki (Human betaherpesvirus 5 [4]): 8.3 µM; half-life [5]: 7.6 h
CC(=O)O[C@@H]1CC(=O)N1C(=O)NCc1ccccc1	42		Ki (Human betaherpesvirus 5 [4]): 20 µM; half-life [5]: 0.53 h
C[C@@H]1C(=O)N(C(=O)NCc2ccccc2)[C@@H]1Oc1ccc(C(=O)C(C)(C)C)cc1	> 100	35	
O=C(O)c1ccc(O[C@@H]2CC(=O)N2C(=O)NCc2ccccc2)cc1	> 100	48	half-life [5]: 1.4 h
CC(C)NC(=O)N1C(=O)C[C@H]1Oc1ccc(C(=O)O)cc1	100	8	
CC(=O)O[C@@H]1[C@H](C)C(=O)N1C(=O)NCc1ccccc1	27		
O=C(O)c1ccc(O[C@@H]2CC(=O)N2C(=O)Nc2ccccc2)cc1	> 100	43	
CC[C@@H]1C(=O)N(C(=O)NCc2ccccc2)[C@@H]1Oc1ccc(C(=O)O)cc1	> 100		Inhibition (Human betaherpesvirus 5 [7]): 25%
